Patent publication US20050148044A1 (priority 1999, published 2005)
Values joined by “and” are separate entries in the source; they are usually repeats but may differ in a detail not shown here. Equal values may be shown once. “Also recorded” adds a separate entry of the source.

Experiments:
C. perfringens [1] = type: cell-based, Clostridium perfringens
Citrobacter [2] = type: cell-based
E. coli [3] = type: cell-based
Bacteroides fragilis = type: cell-based
C. butyricum [4] = type: cell-based, Clostridium butyricum
C. perfringens [5] = type: cell-based, Clostridium perfringens; remark: listed apart in the source
C. butyricum [6] = type: cell-based, Clostridium butyricum; remark: listed apart in the source
E. coli [7] = type: cell-based; remark: listed apart in the source
B. fragilis = type: cell-based, Bacteroides fragilis
Citrobacter [8] = type: cell-based; remark: listed apart in the source
Bifidobacterium bifidum = type: cell-based; set-up: key to intensity of the halo / reduction in the microorganisms: Ø: without halo; + → +++: intensity of the halo; + → +++: intensity of the halo; + → +++: intensity of the halo; ↓: reduction in the microorganisms (here by 90%)
B. longum = type: cell-based; set-up: key: Ø: without halo; + → +++: intensity of the halo; + → +++: intensity of the halo; + → +++: intensity of the halo; ↓: reduction in the microorganisms (here by 90%)
B. dentium = type: cell-based; set-up: key: Ø: without halo; + → +++: intensity of the halo; + → +++: intensity of the halo; + → +++: intensity of the halo; ↓: reduction in the microorganisms (here by 90%)

Row | Molecule | colors due to the hydrolysis of the substrate (C. perfringens [1]) | relative intensity of the color of the colonies (3 to 0) (C. perfringens [1]) | color of the colonies (Citrobacter [2]) | color of the colonies (E. coli [3]) | relative intensity of the color of the colonies (3 to 0) (E. coli [3]) | relative intensity of the color of the colonies (3 to 0) (Bacteroides fragilis) | relative intensity of the color of the colonies (3 to 0) (Citrobacter [2]) | color of the colonies (Bacteroides fragilis) | color of the colonies (C. perfringens [1]) | other results
1 | 5-bromo-4-chloro-3-indolyl-β-D-galactopyranoside [X-Gal] | difficult to see | 3 | cream-colored | all blue | 3 | 2 |  |  |  | halos around the colonies (C. perfringens [1]): blue-gray halos
2 | OC[C@@H]1O[C@@H](Oc2c[nH]c3cc(Cl)c(Br)cc23)[C@@H](O)[C@@H](O)[C@H]1O [Mag-Gal] |  | 3 | cream-colored and pink |  | 2 | 1 | 1 and 2 |  |  | growth of the colonies (C. butyricum [4]): did not grow; relative intensity of the color of the colonies (3 to 0) (C. butyricum [4]): 2
3 | O=P(O)(O)Oc1c[nH]c2cc(Cl)c(Br)cc12 [Mag-Phos] | difficult to see | 3 and 2 | cream-colored (darker center); also recorded: pink (pink agar) | cream-colored (darker center); also recorded: pink (pink agar) | 2 and 3 |  | 2 and 3 | cream-pink; also recorded: cream-colored with a brownish halo |  | 
4 | OC[C@H]1O[C@H](Oc2c[nH]c3cc(Cl)c(Br)cc23)[C@H](O)[C@@H](O)[C@H]1O [Mag-α-Gal] |  |  | cream-colored; also recorded: darker or light cream-colored | darker or light cream-colored; also recorded: cream-colored |  |  |  |  | cream-colored and pink | color of the colonies (C. butyricum [4]): cream-colored; also recorded: darker or light cream-colored
5 | O=P(O)(O)Oc1c[nH]c2ccc(Br)c(Cl)c12 [X-Phos] |  | 2 |  | very light greenish cream-colored; also recorded: darker | 2 and 3 | 1 and 2 | 3 | cream-colored when they are isolated, blue in group; also recorded: deep cream-colored, light brown | greenish cream-colored with a slight blue halo | color of the colonies (C. butyricum [4]): cream-colored; also recorded: cream-colored with a very light halo near the colony and then blue at the periphery; growth of the colonies (C. butyricum [4]): did not grow; relative intensity of the color of the colonies (3 to 0) (C. butyricum [4]): 2
6 | CC(=O)N[C@H]1[C@H](Oc2c[nH]c3ccc(Br)c(Cl)c23)O[C@H](CO)[C@@H](O)[C@@H]1O [X-acglmn] |  |  | cream-colored | cream-colored |  |  |  | cream-colored | cream-colored; also recorded: very slightly greenish cream-colored | 
7 | OC[C@H]1O[C@@H](Oc2c[nH]c3ccc(Br)c(Cl)c23)[C@H](O)[C@@H](O)[C@@H]1O [X-glu] | difficult to see |  |  |  |  |  |  |  |  | 
8 | O=C(O)[C@H]1O[C@@H](Oc2c[nH]c3ccc(Br)c(Cl)c23)[C@H](O)[C@@H](O)[C@@H]1O [X-glucu] | difficult to see |  |  |  |  |  |  |  |  | 
9 | N[C@@H]1CON=C1O [cycloserine] |  |  |  |  |  |  |  |  |  | growth in the presence of antibiotic (C. perfringens [5]): grow; growth in the presence of antibiotic (C. butyricum [6]): grow; growth in the presence of antibiotic (E. coli [7]): grow; growth in the presence of antibiotic (B. fragilis): grow; growth in the presence of antibiotic (Citrobacter [8]): grow
10 | ammoniacal iron citrate [AIC] |  |  |  |  |  |  |  |  |  | bacterial count (Bifidobacterium bifidum): reduction in the number of microorganisms; halo around the colonies (Bifidobacterium bifidum): more intense; also recorded: became visible; intensity of the halo (Bifidobacterium bifidum): + and ++ and +++↓; reduction in the microorganisms (Bifidobacterium bifidum): +++↓; intensity of the halo (B. longum): + and ++; intensity of the halo (B. dentium): + and ++
